Laboratory results from ChEMBL document CHEMBL1129221, “Inhibition of nitric oxide synthase by benzoxazolones” (Bioorg Med Chem Lett, 1997).

Legend:
[1] = target: T1, Nitric oxide synthase 3 (Homo sapiens, UniProt P29474); assay: Inhibitory activity against Endothelial nitric oxide synthase
T1 sequence (P29474 whole entry): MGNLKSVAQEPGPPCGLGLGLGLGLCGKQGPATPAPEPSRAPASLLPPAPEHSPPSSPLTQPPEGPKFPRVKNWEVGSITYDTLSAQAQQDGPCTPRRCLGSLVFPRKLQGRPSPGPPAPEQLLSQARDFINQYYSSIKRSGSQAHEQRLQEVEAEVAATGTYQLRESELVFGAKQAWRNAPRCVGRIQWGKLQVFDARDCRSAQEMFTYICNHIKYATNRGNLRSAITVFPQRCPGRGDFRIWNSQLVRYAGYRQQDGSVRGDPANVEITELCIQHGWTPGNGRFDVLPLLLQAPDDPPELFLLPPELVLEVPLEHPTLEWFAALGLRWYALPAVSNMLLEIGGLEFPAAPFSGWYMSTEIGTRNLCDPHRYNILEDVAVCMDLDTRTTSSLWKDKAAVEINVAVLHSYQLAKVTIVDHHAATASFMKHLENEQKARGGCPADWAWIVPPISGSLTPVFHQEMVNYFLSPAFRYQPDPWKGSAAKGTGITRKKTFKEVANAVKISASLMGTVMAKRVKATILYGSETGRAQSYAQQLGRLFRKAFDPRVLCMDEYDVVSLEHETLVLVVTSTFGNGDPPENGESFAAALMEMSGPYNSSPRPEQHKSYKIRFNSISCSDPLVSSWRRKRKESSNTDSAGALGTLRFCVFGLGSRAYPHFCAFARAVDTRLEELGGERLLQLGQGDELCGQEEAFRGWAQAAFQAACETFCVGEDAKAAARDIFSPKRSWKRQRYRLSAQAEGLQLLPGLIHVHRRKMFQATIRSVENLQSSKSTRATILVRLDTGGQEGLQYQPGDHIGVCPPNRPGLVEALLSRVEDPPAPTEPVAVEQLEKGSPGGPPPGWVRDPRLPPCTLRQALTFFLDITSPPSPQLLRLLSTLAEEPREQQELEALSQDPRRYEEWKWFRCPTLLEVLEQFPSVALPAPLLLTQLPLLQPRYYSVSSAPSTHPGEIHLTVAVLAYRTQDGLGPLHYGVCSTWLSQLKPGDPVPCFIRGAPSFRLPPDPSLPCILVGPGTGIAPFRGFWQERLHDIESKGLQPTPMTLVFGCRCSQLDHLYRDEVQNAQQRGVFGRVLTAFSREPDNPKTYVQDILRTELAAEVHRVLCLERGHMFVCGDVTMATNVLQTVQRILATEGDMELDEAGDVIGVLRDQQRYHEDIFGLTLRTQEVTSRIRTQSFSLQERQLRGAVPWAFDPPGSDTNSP

[2] = target: T2, Nitric oxide synthase, inducible (Homo sapiens, UniProt P35228); assay: In vitro inhibitory activity against Inducible nitric oxide synthase at 50 uM concentration
[3] = target: T3, Nitric oxide synthase 1 (Homo sapiens, UniProt P29475); assay: Compound was evaluated for in vitro inhibitory activity against Neuronal nitric oxide synthase; details: concentration not given here
[4] = target: T3, Nitric oxide synthase 1; assay: Inhibitory activity against Neuronal nitric oxide synthase
[5] = target: T2, Nitric oxide synthase, inducible; assay: Inhibitory activity against Inducible nitric oxide synthase

T3 sequence (P29475 whole entry): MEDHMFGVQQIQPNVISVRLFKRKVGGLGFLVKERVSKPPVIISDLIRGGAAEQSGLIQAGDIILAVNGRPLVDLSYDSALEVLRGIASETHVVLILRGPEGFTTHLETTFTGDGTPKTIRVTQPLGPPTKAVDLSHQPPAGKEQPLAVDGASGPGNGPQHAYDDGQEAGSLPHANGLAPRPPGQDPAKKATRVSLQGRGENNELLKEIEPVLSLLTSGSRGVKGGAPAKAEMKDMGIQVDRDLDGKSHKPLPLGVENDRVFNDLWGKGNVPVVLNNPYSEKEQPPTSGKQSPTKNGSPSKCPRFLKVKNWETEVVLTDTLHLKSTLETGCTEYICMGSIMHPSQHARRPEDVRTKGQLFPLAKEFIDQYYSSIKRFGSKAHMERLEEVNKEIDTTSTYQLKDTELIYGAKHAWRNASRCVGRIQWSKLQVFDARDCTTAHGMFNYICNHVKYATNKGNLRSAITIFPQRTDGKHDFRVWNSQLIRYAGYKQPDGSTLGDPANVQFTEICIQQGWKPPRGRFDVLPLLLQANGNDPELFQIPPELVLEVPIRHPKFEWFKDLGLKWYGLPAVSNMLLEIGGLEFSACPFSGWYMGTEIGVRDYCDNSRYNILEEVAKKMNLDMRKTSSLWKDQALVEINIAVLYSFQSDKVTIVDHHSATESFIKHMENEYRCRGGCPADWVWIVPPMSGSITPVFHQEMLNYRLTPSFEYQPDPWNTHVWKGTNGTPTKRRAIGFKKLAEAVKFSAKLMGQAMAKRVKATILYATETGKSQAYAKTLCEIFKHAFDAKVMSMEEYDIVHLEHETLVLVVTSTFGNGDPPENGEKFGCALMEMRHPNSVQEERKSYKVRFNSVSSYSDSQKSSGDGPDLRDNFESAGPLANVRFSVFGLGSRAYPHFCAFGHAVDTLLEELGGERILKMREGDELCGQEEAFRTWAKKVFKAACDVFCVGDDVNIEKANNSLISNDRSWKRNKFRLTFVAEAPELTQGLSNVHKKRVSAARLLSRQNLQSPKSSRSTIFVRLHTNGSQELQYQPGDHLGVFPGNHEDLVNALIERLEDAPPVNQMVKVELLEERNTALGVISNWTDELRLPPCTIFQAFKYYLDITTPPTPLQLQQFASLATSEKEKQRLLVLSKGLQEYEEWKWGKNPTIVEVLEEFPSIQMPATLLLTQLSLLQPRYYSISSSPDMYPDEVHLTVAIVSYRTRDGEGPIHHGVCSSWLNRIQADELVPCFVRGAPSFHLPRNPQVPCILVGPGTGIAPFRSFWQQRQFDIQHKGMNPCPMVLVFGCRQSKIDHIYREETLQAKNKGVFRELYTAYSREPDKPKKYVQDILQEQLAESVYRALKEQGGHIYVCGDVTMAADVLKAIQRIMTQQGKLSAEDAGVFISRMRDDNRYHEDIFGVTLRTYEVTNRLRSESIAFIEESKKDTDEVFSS
T2 sequence (P35228 whole entry): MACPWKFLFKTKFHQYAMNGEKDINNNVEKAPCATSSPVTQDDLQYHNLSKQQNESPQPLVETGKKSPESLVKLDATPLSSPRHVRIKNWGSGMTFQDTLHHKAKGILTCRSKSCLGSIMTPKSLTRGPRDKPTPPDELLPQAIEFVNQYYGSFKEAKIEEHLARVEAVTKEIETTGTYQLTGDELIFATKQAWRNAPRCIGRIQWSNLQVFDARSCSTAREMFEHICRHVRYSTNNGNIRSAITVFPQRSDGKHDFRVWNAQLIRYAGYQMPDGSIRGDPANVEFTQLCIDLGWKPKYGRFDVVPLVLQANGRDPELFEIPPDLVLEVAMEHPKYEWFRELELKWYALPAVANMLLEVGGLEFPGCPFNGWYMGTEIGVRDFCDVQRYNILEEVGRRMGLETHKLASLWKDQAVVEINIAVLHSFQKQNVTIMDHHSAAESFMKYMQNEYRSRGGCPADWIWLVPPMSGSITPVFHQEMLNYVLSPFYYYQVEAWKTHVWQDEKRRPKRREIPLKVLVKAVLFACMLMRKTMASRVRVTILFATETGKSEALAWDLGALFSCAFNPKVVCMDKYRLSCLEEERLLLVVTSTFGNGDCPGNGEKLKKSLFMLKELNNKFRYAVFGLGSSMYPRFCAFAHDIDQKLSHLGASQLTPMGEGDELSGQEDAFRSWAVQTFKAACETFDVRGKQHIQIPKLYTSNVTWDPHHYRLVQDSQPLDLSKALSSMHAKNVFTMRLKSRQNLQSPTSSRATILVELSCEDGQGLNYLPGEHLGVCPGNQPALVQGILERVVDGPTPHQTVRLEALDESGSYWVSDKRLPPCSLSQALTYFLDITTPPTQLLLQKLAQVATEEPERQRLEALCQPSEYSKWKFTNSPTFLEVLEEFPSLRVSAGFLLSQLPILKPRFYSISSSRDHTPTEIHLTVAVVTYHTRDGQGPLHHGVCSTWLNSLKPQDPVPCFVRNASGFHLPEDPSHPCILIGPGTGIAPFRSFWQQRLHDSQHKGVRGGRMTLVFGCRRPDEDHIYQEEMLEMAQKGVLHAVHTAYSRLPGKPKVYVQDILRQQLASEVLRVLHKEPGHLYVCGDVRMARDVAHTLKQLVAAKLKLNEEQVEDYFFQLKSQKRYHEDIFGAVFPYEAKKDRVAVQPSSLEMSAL

| SMILES | IC50 [1] [µM] | inhibition [2] [%] | inhibition [3] [%] | IC50 [4] [µM] | IC50 [5] [µM] |
| --- | --- | --- | --- | --- | --- |
| CN(Cn1c(=O)oc2ccc(Cl)cc21)c1ccccn1 | 8.4 | 74 | 71 | – | – |
| O=c1oc2ccc(Cl)cc2n1CCN1CCOCC1 | – | 0 | – | – | – |
| CN(CCc1ccccc1)Cn1c(=O)oc2ccc(Cl)cc21 | 15.9 | – | – | 68 | 15.9 |
| CN1CCN(Cn2c(=O)oc3ccc(Cl)cc32)CC1 | 15.5 | – | – | 4.4 | 1.2 |
| Cc1ccc2nc(O)oc2n1 | > 50 | – | – | 50 | 7.4 |
| O=c1oc2ccc(Cl)cc2n1CN1CCOCC1 | 14.7 | – | – | 5.6 | 0.8 |
| N#Cc1ccc2oc(O)nc2c1 | 50 | – | – | 50 | 14.5 |
| Cc1ccc2[nH]c(=O)oc2c1 | > 50 | – | – | 13.1 | > 50 |
| O=c1oc2ccc(Cl)cc2n1CN1CCCCC1 | 18.9 | – | – | 4.6 | 1.5 |
| Sc1nc2cc(Cl)ccc2o1 | > 50 | – | – | > 50 | > 50 |
| Cc1cccc2oc(=O)[nH]c12 | > 50 | – | – | > 50 | > 50 |
| O=c1[nH]c2cc(F)ccc2o1 | > 50 | – | – | > 50 | > 50 |
| Cc1ccc2oc(O)nc2c1 | 10.6 | – | – | 50 | 9.9 |
| Oc1nc2ncccc2o1 | – | – | – | – | > 50 |
| O=c1oc2ccc(Cl)cc2n1CN1CCSCC1 | 20.3 | – | – | 4.4 | 3.5 |
| CN(Cc1ccccc1)Cn1c(=O)oc2ccc(Cl)cc21 | 13.6 | – | – | 11.5 | 13.4 |
